From PubChem BioAssay AID2060485 (Molecular Pharmacology Branch, DTP, NCI, 2025)
“And” between values parts separate entries of the source, which are not always exact repeats. Equal entries are not always repeated.

Tested on: A375 multi-cell spheroids with HUVEC/MSC, viability
Experiment: Anticancer human tumor A375 cell line growth inhibition [GQUAD];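 note: spheroids exposed to compounds for seven days before readout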
Conditions: for viability, T/C: stronger effect = lower value
Source text: DNA G-quadruplex Stabilizer Agents in Combinations in Complex Spheroids
A high-throughput screen of multi-cell type tumor spheroids was designed to identify active combinations of DNA G-quadruplex stabilizer agents and targeted small molecules. Complex spheroids include a stromal component modeled by human endothelial cells (HUVEC) and fibroblasts modeled by human mesenchymal stem cells (MSCs). The concentration ranges selected for each drug and investigational agent were based upon clinically achievable concentrations if the clinical Cmax of the agent was known.
Compounds. The drugs and investigational agents: pidnarulex (CX-5461; NSC782164), APTO-253 (NSC789042), BRACO-19 (NSC847499), peposertib (NSC802822), ceralasertib (NSC780249), elimusertib (NSC800525), camonsertib (NSC841442), AZD-1390 (NSC803789), olaparib (NSC753686), talazoparib (NSC767125), ART-558 (NSC835418), sotorasib (NSC818433), MRTX-1133 (NSC836407), SN-38 (NSC673596), topotecan (NSC609699), etoposide (NSC141540), doxorubicin (NSC123127), gemcitabine (NSC613327), 5-fluorouracil (NSC19893), paclitaxel (NSC125973), vemurafenib (NSC761431), panobinostat (NSC761190), R-306465 (JNJ-16241199; NSC773264), adavosertib (NSC754352), TP-3654 (NSC805149), carboplatin (NSC241240), KSQ-4279 (NSC840948), and staurosporine (NSC755774) were obtained from the National Cancer Institute (NCI) Developmental Therapeutics Program Chemical Repository (34). The FDA-approved anticancer drug set is available from the NCI Developmental Therapeutics Program. […] The stock solutions were prepared in dimethyl sulfoxide (DMSO, Sigma-Aldrich, St. Louis, MO, cat. D2650) at 800-fold the tested concentration and stored at -70 degrees C prior to their use. All drugs and investigational agents were tested over a range starting from a high concentration at or near the clinical Cmax and decreasing in half-log increments. If the clinical Cmax for an agent had not been determined, the highest concentration tested was 10 microM.
2.3 Cell Culture. All cells were maintained in an incubator at 37 degrees C and 5% CO2 with 95% humidity. The PDC lines were cultured according to standard operating procedures established by the NCI PDMR. All PDCs were thawed and cultured in Matrigel-coated flasks prepared with a working solution of 1X Ham's F-12 nutrient mix, without supplementation (Invitrogen, cat. 11765054), 100 U/mL penicillin-streptomycin (Invitrogen, cat. 15140122), and 2.5% Matrigel (Corning Inc., cat. 354248) for the first three passages. The 857933-349-R-J2-PDC line was cultured in 6C/Colon 1B media, which includes advanced DMEM/F-12 (Thermo Fisher Scientific, cat. 12634028), 10 mM HEPES (Thermo Fisher Scientific, cat. 15630080), 1X GlutaMAX supplement (Thermo Fisher Scientific, cat. 35050061), 0.1 mg/mL primocin (InvivoGen, cat. ant-pm-2), 10% defined fetal bovine serum, heat inactivated (HyClone Laboratories Inc., cat. SH30070.03HI), 50% L-WRN conditioned media (ATCC, cat. CRL-3276), 1.25 mM N-Acetyl-L-cysteine (Sigma-Aldrich, cat. A9165), 10 mM nicotinamide (Sigma-Aldrich, cat. N0636), 1X B-27 supplement (Thermo Fisher Scientific, cat. 17504044), 1X N-2 supplement (Thermo Fisher Scientific, cat. 17502048), 10 microM Y-27632 dihydrochloride (Tocris Bioscience, cat. 1254), and 50 ng/mL human EGF recombinant protein (Thermo Fisher Scientific, cat. PHG0311). The 485176-168-R4-J1-PDC line was cultured in Panc media, which includes all 6C/Colon 1B media components plus 100 ng/mL human FGF-10 (Thermo Fisher Scientific, cat. 100-26), 500 nM SB-431542 (Selleckchem, cat. S1067), and gastrin (Tocris, cat. 3006).
[…]

SMILES: C#Cc1c(F)ccc2cc(O)cc(-c3ncc4c(N5CC6CCC(C5)N6)nc(OCC56CCCN5CC(F)C6)nc4c3F)c12 (stereo unspecified)
- viability, T/C (compound 0.0316 µM): 103% and 97.8% and 101%
- viability, T/C (compound 0.1 µM): 96% and 106% and 96.2%
- viability, T/C (compound 0.316 µM): 97.2% and 96.2% and 108%
- viability, T/C (compound 1 µM): 101% and 117% (2×)
- viability, T/C (compound 3.16 µM): 113% and 106% and 101%
- viability, T/C (compound 10 µM): 90.4% and 98.4% and 113%
- IC50 (curve of compound): > 10 µM

SMILES: C=CC(=O)N1CCN(c2nc(=O)n(-c3c(C)ccnc3C(C)C)c3nc(-c4c(O)cccc4F)c(F)cc23)C(C)C1 (stereo unspecified)
- viability, T/C (compound 0.0316 µM): 94.3% and 100% and 93.8%
- viability, T/C (compound 0.1 µM): 105% and 91.8% and 94.4%
- viability, T/C (compound 0.316 µM): 95.2% and 94.2% and 99%
- viability, T/C (compound 1 µM): 101% and 90.2% and 99.8%
- viability, T/C (compound 3.16 µM): 109% and 99.3% and 126%
- viability, T/C (compound 10 µM): 101% and 119% and 111%
- IC50 (curve of compound): > 10 µM

SMILES: C=CCn1c(=O)c2cnc(Nc3ccc(N4CCN(C)CC4)cc3)nc2n1-c1cccc(C(C)(C)O)n1
- viability, T/C (compound 0.0316 µM): 101% and 98.4% and 96.4%
- viability, T/C (compound 0.1 µM): 104% and 102% and 96.9%
- viability, T/C (compound 0.316 µM): 89.5% and 96.9% and 102%
- viability, T/C (compound 1 µM): 48.4% and 59% and 66.4%
- viability, T/C (compound 3.16 µM): 11.5% and 13.3% and 17.2%
- viability, T/C (compound 10 µM): 5.76% and 7.73% and 8.28%
- IC50 (curve of compound): 0.943 µM and 1.25 µM and 1.47 µM

SMILES: CC(=O)O[C@H]1C(=O)[C@@]2(C)[C@H]([C@H](OC(=O)c3ccccc3)[C@]3(O)C[C@H](OC(=O)[C@H](O)[C@@H](NC(=O)c4ccccc4)c4ccccc4)C(C)=C1C3(C)C)[C@]1(OC(C)=O)CO[C@@H]1C[C@@H]2O
- viability, T/C (compound 0.0316 µM): 68.9% and 90.7% and 112%
- viability, T/C (compound 0.1 µM): 18.1% and 20.5% and 32.6%
- viability, T/C (compound 0.316 µM): 9.64% and 11.9% and 16.6%
- viability, T/C (compound 1 µM): 9.68% and 8.91% and 13.8%
- viability, T/C (compound 3.16 µM): 7.88% and 12.2% and 13.3%
- viability, T/C (compound 10 µM): 10.8% and 15.2% and 17.8%
- IC50 (curve of compound): 0.0485 µM and 0.0616 µM and 0.0776 µM

SMILES: CC(C)(O)C1CCC(Nc2ccc3ncc(-c4cccc(C(F)(F)F)c4)n3n2)CC1 (stereo unspecified)
- viability, T/C (compound 0.0316 µM): 104% and 93.2% and 105%
- viability, T/C (compound 0.1 µM): 105% and 99.9% and 95.9%
- viability, T/C (compound 0.316 µM): 99.1% and 95.6% and 91.5%
- viability, T/C (compound 1 µM): 97.7% and 95.2% and 105%
- viability, T/C (compound 3.16 µM): 90.2% and 83.5% and 92%
- viability, T/C (compound 10 µM): 87.5% and 88% and 97.8%
- IC50 (curve of compound): > 10 µM

SMILES: CC(C)n1c(=O)n(C)c2cnc3cc(F)c(-c4ccc(OCCCN5CCCCC5)nc4)cc3c21
- viability, T/C (compound 0.0316 µM): 103% and 99.6% and 97.1%
- viability, T/C (compound 0.1 µM): 92.8% and 105% and 111%
- viability, T/C (compound 0.316 µM): 96.4% and 103% and 99.7%
- viability, T/C (compound 1 µM): 97.4% and 108% and 98.7%
- viability, T/C (compound 3.16 µM): 102% and 114% and 109%
- viability, T/C (compound 10 µM): 94.5% and 85.4% and 97.5%
- IC50 (curve of compound): > 10 µM

SMILES: CC1COCCN1c1cc(-c2ccnn2C)c2ccnc(-c3ccn[nH]3)c2n1 (stereo unspecified)
- viability, T/C (compound 0.0316 µM): 106% and 103% and 105%
- viability, T/C (compound 0.1 µM): 87.6% and 77% and 93.2%
- viability, T/C (compound 0.316 µM): 75.4% and 49.7% and 69.2%
- viability, T/C (compound 1 µM): 38.9% and 25% and 31.8%
- viability, T/C (compound 3.16 µM): 13.2% and 9.89% and 11.6%
- viability, T/C (compound 10 µM): 11.8% and 10.5% and 11.2%
- IC50 (curve of compound): 0.677 µM and 0.294 µM and 0.561 µM

SMILES: CC1COCCN1c1cc(C2(O)CC3CCC(C2)O3)c2cnn(-c3ccn[nH]3)c2n1 (stereo unspecified)
- viability, T/C (compound 0.0316 µM): 117% and 107% and 101%
- viability, T/C (compound 0.1 µM): 73.7% and 86.2% and 65.1%
- viability, T/C (compound 0.316 µM): 47.9% and 53.4% and 35.1%
- viability, T/C (compound 1 µM): 19.1% and 20.1% and 14.9%
- viability, T/C (compound 3.16 µM): 12.1% and 10.6% and 9.5%
- viability, T/C (compound 10 µM): 8.52% and 8.96% and 7.33%
- IC50 (curve of compound): 0.25 µM and 0.334 µM and 0.176 µM

SMILES: CC1COCCN1c1cc(C2(S(C)(=N)=O)CC2)nc(-c2ccnc3[nH]ccc23)n1 (stereo unspecified)
- viability, T/C (compound 0.0316 µM): 103% and 102%
- viability, T/C (compound 0.1 µM): 97.6% and 102%
- viability, T/C (compound 0.316 µM): 104% and 98.5%
- viability, T/C (compound 1 µM): 109% and 103%
- viability, T/C (compound 3.16 µM): 54.7% and 63.4%
- viability, T/C (compound 10 µM): 42.4% and 36.1%
- IC50 (curve of compound): 4.9 µM and 5.56 µM

SMILES: CCCS(=O)(=O)Nc1ccc(F)c(C(=O)c2c[nH]c3ncc(-c4ccc(Cl)cc4)cc23)c1F
- viability, T/C (compound 0.0316 µM): 41.8% and 44% and 40.9%
- viability, T/C (compound 0.1 µM): 16.1% and 14.9% and 17.2%
- viability, T/C (compound 0.316 µM): 8.83% and 9.93% and 11.1%
- viability, T/C (compound 1 µM): 6.9% and 7.11% and 7.65%
- viability, T/C (compound 3.16 µM): 5.54% and 6.38% and 6.53%
- viability, T/C (compound 10 µM): 5.63% and 5.69% and 7.54%
- IC50 (curve of compound): < 0.0316 µM

SMILES: CC[C@@]1(O)C(=O)OCc2c1cc1n(c2=O)Cc2cc3c(CN(C)C)c(O)ccc3nc2-1
- viability, T/C (compound 0.000999 µM): 104% and 102% and 101%
- viability, T/C (compound 0.00316 µM): 105% (2×) and 93.9%
- viability, T/C (compound 0.00999 µM): 108% and 96.2% and 102%
- viability, T/C (compound 0.0316 µM): 80.7% and 57% and 63%
- viability, T/C (compound 0.0999 µM): 24.7% and 19.6% and 22%
- viability, T/C (compound 0.316 µM): 14.6% and 9.66% and 10.5%
- IC50 (curve of compound): 0.0593 µM and 0.0395 µM and 0.0458 µM

SMILES: CCc1c2c(nc3ccc(O)cc13)-c1cc3c(c(=O)n1C2)COC(=O)[C@]3(O)CC
- viability, T/C (compound 0.000999 µM): 45.1% and 41.4% and 38.3%
- viability, T/C (compound 0.00316 µM): 17.9% and 15.3% and 17.3%
- viability, T/C (compound 0.00999 µM): 15.6% and 10.1% and 12.2%
- viability, T/C (compound 0.0316 µM): 18% and 14.4% and 15%
- viability, T/C (compound 0.0999 µM): 4.97% and 4.55% and 5.97%
- viability, T/C (compound 0.316 µM): 0.56% and 1.25% and 0.77%
- IC50 (curve of compound): < 0.000999 µM

SMILES: CN(C)c1ccc(Nc2c3ccc(NC(=O)CCN4CCCC4)cc3nc3cc(NC(=O)CCN4CCCC4)ccc23)cc1
- viability, T/C (compound 0.0316 µM): 98.8% [middle of 12 runs]
- viability, T/C (compound 0.1 µM): 103% [middle of 12 runs]
- viability, T/C (compound 0.316 µM): 104% [middle of 12 runs]
- viability, T/C (compound 1 µM): 101% [middle of 12 runs]
- viability, T/C (compound 3.16 µM): 106% [middle of 12 runs]
- viability, T/C (compound 10 µM): 102% [middle of 12 runs]
- IC50 (compound alone, run of 03/26/2024): > 10 µM
